Data as given in patent US11952328B2, “Selective ship inhibitors for treating disease” (THE RESEARCH FOUNDATION FOR THE STATE UNIVERSITY OF NEW YORK, priority 2018, dated 2024).

What was measured:
[1] = system: NK cells and T cells; experiment: NK and T cell numbers, maturation and FasL expression by flow cytometry after two-day treatment; format: in vivo, mice
From the text: FIGS. 5A-5I show the effects of SHIP1 inhibitor as a chemotherapeutic. […] FIG. 5D and FIG. 5E show the representative histograms and box-and-whisker plots of FasL expression by NK cells from C56BL/6 (p=0.0002; Unpaired t test with Welch's correction) or RAG1−/− (p<0.0001; Mann-Whitney U test) tumor challenged, SHIP inhibitor or vehicle treated hosts. […] (NK cells p=0.0192; Unpaired t test with Welch's correction. T cells p=0.0659; Mann-Whitney U test). Additionally, FIGS. 5A-5G show the analysis by flow cytometry on day 3 after hosts receive SHIP inhibitor or vehicle for two consecutive days. NK cells are defined as NK1.1+CD3ε−. The graphs are representative of at least two independent experiments with at least four SHIP inhibitor and vehicle treated mice. […] Viability is expressed as frequency at a given concentration expressed as a percentage of solvent only treated cells. The kill curve summarizes pooled data from three independent experiments using six replicate wells/concentration with mean ±SEM indicated (n=18 per group. One-way ANOVA with Dunnett's multiple comparisons. 0 pM vs. 20 pM Adjusted p value =0.0001. 0 pM vs. 15 pM Adjusted p value =0.0001. 0 pM vs. 10 pM Adjusted p value =0.0001. 0 pM vs. 7.5 pM Adjusted p value =0.0001. 0 pM vs. 5 pM Adjusted p value =0.0001).
NK cells are able to directly kill target cells through several different mechanisms including both production of perforin and granzymes and induction of apoptosis via Fas-FasL signaling (Arase, H. et al., Fas-mediated cytotoxicity by freshly isolated natural killer cells. J Exp Med. (1995); 181: 1235-1238; Zamai, L. et al., Natural killer (NK) cell-mediated cytotoxicity: differential use of TRAIL and Fas ligand by immature and mature primary human NK cells. J Exp Med. (1998); 188: 2375-2380). […] SHIP1 was recently shown to be recruited to CD95/Fas to set a threshold for induction of Caspase 8, and thereby, a threshold for induction of apoptosis (Park, M. Y. et al., Impaired T-cell survival promotes mucosal inflammatory disease in SHIP1-deficient mice. Mucosal Immunol. (2014); 7: 1429-1439). This pathway might contribute to 3AC-mediated killing of lymphoma cells in a host-extrinsic fashion and, possibly, even to NK cell mediated clearance of tumor in vivo. To explore this possibility, whether 3AC induces FasL, the death ligand, on cytotoxic host cells present in the tumor site was examined. […] This is consistent with what has been previously reported with multiple myeloma, myeloid leukemias and T cell leukemia, and that others have recently reported in preB ALL (Park, M. Y. et al., Impaired T-cell survival promotes mucosal inflammatory disease in SHIP1-deficient mice. Mucosal Immunol. (2014); 7: 1429-1439; Brooks, R. et al., SHIP1 inhibition increases immunoregulatory capacity and triggers apoptosis of hematopoietic cancer cells. J Immunol. (2010); 184: 3582-3589; Fuhler, G. M. et al., Therapeutic potential of SH2 domain-containing inositol-5′-phosphatase 1 (SHIP1) and SHIP2 inhibition in cancer. Mol Med. (2012); 18: 65-75; Chen, Z. et al, Signalling thresholds and negative B-cell selection in acute lymphoblastic leukaemia. Nature. (2015)) . […] Therefore, the improved tumor clearance and survival following acute 3AC treatment in vivo may result from both a chemotherapeutic effect and enhanced immune control.

[2] = system: CT26; experiment: CT26 viability following in vitro treatment; format: cell-based, mice; conditions: in vitro 24 h; only 20 μM vs 0 μM adjusted p=0.0463, other concentrations N.S.
Protocol: FIG. 7A and FIG. 7B show CT26 (FIG. 7A) and MC-38 (FIG. 7B) viability following in vitro treatment with 3AC for 24 h at indicated doses. Relative viability is expressed as frequency compared to solvent only treated cells. Kill curve summarizes pooled data from three independent experiments using six replicate wells/concentration with mean±SEM indicated. BALB/C mice were challenged with subcutaneous injection of CT26 colon carcinoma cells in the right flank. Mice were treated with either 2 consecutive days of 3AC or vehicle control each week as in FIG. 4A. Tumor size at […] 28 days (FIG. 7C), and tumor weight on day 28 determined after dissection of tumor (FIG. 7E). […] C57BL/6 mice were challenged with subcutaneous injection of MC-38 colon carcinoma cells in the right flank. Mice were treated with either 2 consecutive days of SHIP inhibitor or vehicle control each week as in FIG. 4A. Tumor size at 14, 21 and 25 days (FIG. 7D), and tumor weight (FIG. 7F) on day 25 were determined after dissection of tumor. […] FIG. 7A (n=18 per group. One-way ANOVA with Dunnett's multiple comparisons. 0 μM vs. 20 μM Adjusted p value=0.0463. All other concentrations of SHIP inhibitor compared with solvent only N.S.). FIG. 7B (n=18 per group. One-way ANOVA with Dunnett's multiple comparisons. All concentrations of SHIP inhibitor compared with solvent only N.S.). […]

CC(C)CCC[C@@H](C)[C@H]1CC[C@H]2[C@@H]3CCC4C[C@H](N)CC[C@]4(C)[C@H]3CC[C@]12C (stereo partly drawn) [Compound 3AC, 3-α-aminocholestane]
FasL expression, splenic NK cells ([1]; C57BL/6 mice, vs vehicle): small, but significantly increased frequency | terminal maturation of the peripheral NK cell compartment ([1]; spleen, naive or tumor challenged C57BL/6 hosts, vs vehicle): significantly increased | number of NK cells at the tumor site in the peritoneal cavity ([1]; tumor challenged C57BL/6 hosts, vs vehicle): significantly increased | FasL expression of host NK cells and T cells at the tumor site ([1]; tumor challenged hosts, vs vehicle): profound acquisition of FasL | number of splenic NK cells ([1]; two days of treatment vs vehicle): decreased numbers | CT26 viability (direct killing) [2]: resistant to direct killing
